Reference: the NIST ThermoML archive (doi:10.1021/je060093l)
Numbers after ± are expanded uncertainties.

Assays:
[1] = refractive index (Na D-line) (dimensionless); conditions: 298.15 K; 101.33 kPa; Liquid; Standard Abbe refractometry
[2] = Liquid, Ebulliometric method (Recirculating still)

Cc1ccccc1C [1,2-dimethylbenzene]
Conditions	refractive index
[1]	1.5026 ± 0.0004

c1ccsc1 [thiophene]
Conditions	refractive index
[1]	1.5255 ± 0.0004

[2]
Conditions	vapor or sublimation pressure [kPa]
328.01 K	37.5 ± 0.37
331.52 K	42.75 ± 0.38
337.52 K	53.02 ± 0.38
341.13 K	60.12 ± 0.4
346.44 K	71.92 ± 0.41
350.46 K	82.01 ± 0.43
353.38 K	90.03 ± 0.45
356.73 K	99.99 ± 0.45

CCCS [1-propanethiol]
Conditions	refractive index
[1]	1.4353 ± 0.0004

[2]
Conditions	vapor or sublimation pressure [kPa]
310.52 K	34.6 ± 0.37
315.47 K	41.96 ± 0.38
320.68 K	51.03 ± 0.39
325.73 K	61.23 ± 0.4
330.38 K	72.02 ± 0.42
334.62 K	83.15 ± 0.43
337.03 K	90.03 ± 0.45
340.63 K	101.19 ± 0.46

CCSCC [3-thiapentane]
Conditions	refractive index
[1]	1.44 ± 0.0004

[2]
Conditions	vapor or sublimation pressure [kPa]
333.82 K	35.84 ± 0.37
338.63 K	42.73 ± 0.37
344.7 K	52.89 ± 0.39
350.02 K	63.3 ± 0.4
353.56 K	71.09 ± 0.41
358.41 K	83.03 ± 0.42
361.02 K	90.03 ± 0.44
361.03 K	90.03 ± 0.44
365.05 K	101.92 ± 0.45

Cc1ccccc1 [toluene]
Conditions	refractive index
[1]	1.4939 ± 0.0004

[2]
Conditions	vapor or sublimation pressure [kPa]
352.64 K	38.32 ± 0.37
356.84 K	44.23 ± 0.37
361.31 K	51.31 ± 0.38
367.88 K	63.37 ± 0.39
372.12 K	72.27 ± 0.41
375.63 K	80.42 ± 0.42
379.44 K	90.03 ± 0.42
379.45 K	90.03 ± 0.42
